ChEMBL document CHEMBL5380862, “Unsymmetrical Phosphodiesters as GPR84 Antagonists with High Blood Exposure for the Treatment of Lung Inflammation” (J Med Chem, 2023)
The source made the active and inactive calls. No cut-off for these calls is given here.

Tests used:
[1] = AUClast in ICR mouse at 5 mg/kg, po administered as single dose; assay type: ADME, organism-based; design: dose 5 mg/kg, route po; conditions: in vivo
[2] = Oral bioavailability in ICR mouse at 5 mg/kg administered as single dose; assay type: ADME, organism-based; conditions: in vivo
[3] = Drug distribution in mouse plasma at 5 mg/kg, po administered as single dose and measured after 2 hrs by LC-MS analysis; assay type: ADME, organism-based
[4] = Drug distribution in mouse brain at 5 mg/kg, po administered as single dose and measured after 2 hrs by LC-MS analysis; assay type: ADME, organism-based; conditions: read-out: Drug uptake
[5] = Drug distribution in mouse lung at 5 mg/kg, po administered as single dose and measured after 0.5 hrs by LC-MS analysis; assay type: ADME, organism-based; conditions: read-out: Drug uptake
[6] = Drug distribution in mouse lung at 5 mg/kg, po administered as single dose and measured after 2 hrs by LC-MS analysis; assay type: ADME, organism-based; conditions: read-out: Drug uptake
[7] = Drug distribution in mouse lung at 5 mg/kg, po administered as single dose and measured after 8 hrs by LC-MS analysis; assay type: ADME, organism-based; conditions: read-out: Drug uptake
[8] = Drug distribution in mouse liver at 5 mg/kg, po administered as single dose and measured after 0.5 hrs by LC-MS analysis; assay type: ADME, organism-based; conditions: read-out: Drug uptake
[9] = Drug distribution in mouse liver at 5 mg/kg, po administered as single dose and measured after 2 hrs by LC-MS analysis; assay type: ADME, organism-based; conditions: read-out: Drug uptake
[10] = Drug distribution in mouse liver at 5 mg/kg, po administered as single dose and measured after 8 hrs by LC-MS analysis; assay type: ADME, organism-based; conditions: read-out: Drug uptake
[11] = tested on: Neutrophil; assay: Inhibition of cell migration in 3-hydroxydodecanoic acid-stimulated mouse CD11bpositive Ly6Gpositive neutrophils at 0.01 to 1 uM incubated for 1.5 hrs by flow cytometric analysis; assay type: functional, cell-based; conditions: dose 0.01-1 µM
[12] = tested on: Neutrophil; assay: Inhibition of cell migration in 6-n-[…]-stimulated mouse CD11bpositive Ly6Gpositive neutrophils at 0.01 to 1 uM incubated for 1.5 hrs by flow cytometric analysis; assay type: functional, cell-based; conditions: dose 0.01-1 µM
[13] = tested on: Monocyte; assay: Inhibition of cell migration in 6-n-[…]-stimulated mouse CD11bpositive Ly6Cpositive monocyte at 0.01 to 1 uM incubated for 1.5 hrs by flow cytometric analysis; assay type: functional, cell-based; conditions: dose 0.01-1 µM
[14] = target: T1, Glucose-dependent insulinotropic receptor (Homo sapiens) (UniProt Q8TDV5); assay: Antagonist activity at GPR119 (unknown origin) expressed in HEK293 cells assessed as inhibition of AR231453 induced […] upto 100 uM pre-incubated for 10 mins followed by AR231453 addition and measured after 15 mins by cAMP detection assay; assay type: functional, cell-based; conditions: time 25.0 min
T1 sequence (whole entry): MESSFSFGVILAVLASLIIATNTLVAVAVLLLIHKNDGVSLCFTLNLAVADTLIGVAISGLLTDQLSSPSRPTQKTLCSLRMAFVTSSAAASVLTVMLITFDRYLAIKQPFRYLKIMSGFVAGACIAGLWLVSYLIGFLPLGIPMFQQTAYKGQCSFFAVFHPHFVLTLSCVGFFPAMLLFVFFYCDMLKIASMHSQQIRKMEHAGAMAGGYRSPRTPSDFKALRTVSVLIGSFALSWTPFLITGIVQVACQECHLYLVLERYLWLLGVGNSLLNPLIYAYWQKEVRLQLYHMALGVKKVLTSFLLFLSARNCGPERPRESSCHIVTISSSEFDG

[15] = target: T2, Free fatty acid receptor 4 (Homo sapiens) (UniProt Q5NUL3); assay: Antagonist activity at GPR120 (unknown origin) expressed in HEK293 cells co-expressing Galpha16 assessed as inhibition of TUG-981 induced calcium response upto 100 uM incubated for 10 mins by calcium mobilization assay; assay type: functional, cell-based
T2 sequence (whole entry): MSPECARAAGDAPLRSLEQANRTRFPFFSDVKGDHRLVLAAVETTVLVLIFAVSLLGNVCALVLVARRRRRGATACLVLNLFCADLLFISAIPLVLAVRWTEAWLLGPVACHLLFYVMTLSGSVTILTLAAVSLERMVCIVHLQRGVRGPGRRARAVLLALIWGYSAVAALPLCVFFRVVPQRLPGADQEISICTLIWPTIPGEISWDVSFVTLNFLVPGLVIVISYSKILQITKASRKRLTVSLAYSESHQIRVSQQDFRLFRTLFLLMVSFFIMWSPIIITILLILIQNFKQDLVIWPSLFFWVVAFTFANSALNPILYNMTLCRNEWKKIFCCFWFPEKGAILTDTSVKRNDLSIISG

[16] = target: Kappa-type opioid receptor (Homo sapiens) (UniProt P41145); assay: Antagonist activity at KOR (unknown origin) expressed in HEK293 cells co-expressing Galpha16 assessed as inhibition of U50488 induced calcium response upto 100 uM incubated for 10 mins by calcium mobilization assay; assay type: functional, cell-based
[17] = target: Delta-type opioid receptor (Homo sapiens) (UniProt P41143); assay: Antagonist activity at DOR (unknown origin) expressed in CHO-K1 cells co-expressing Galpha16 assessed as inhibition of DPDPE induced calcium response upto 100 uM incubated for 10 mins by calcium mobilization assay; assay type: functional, cell-based
[18] = target: T3, Alpha-1A adrenergic receptor (Homo sapiens) (UniProt P35348); assay: Antagonist activity at ARalpha1A (unknown origin) expressed in HEK293 cells co-expressing Galpha16 assessed as inhibition of Phenylephrine induced calcium response upto 100 uM incubated for 10 mins by calcium mobilization assay; assay type: functional, cell-based
T3 sequence (whole entry): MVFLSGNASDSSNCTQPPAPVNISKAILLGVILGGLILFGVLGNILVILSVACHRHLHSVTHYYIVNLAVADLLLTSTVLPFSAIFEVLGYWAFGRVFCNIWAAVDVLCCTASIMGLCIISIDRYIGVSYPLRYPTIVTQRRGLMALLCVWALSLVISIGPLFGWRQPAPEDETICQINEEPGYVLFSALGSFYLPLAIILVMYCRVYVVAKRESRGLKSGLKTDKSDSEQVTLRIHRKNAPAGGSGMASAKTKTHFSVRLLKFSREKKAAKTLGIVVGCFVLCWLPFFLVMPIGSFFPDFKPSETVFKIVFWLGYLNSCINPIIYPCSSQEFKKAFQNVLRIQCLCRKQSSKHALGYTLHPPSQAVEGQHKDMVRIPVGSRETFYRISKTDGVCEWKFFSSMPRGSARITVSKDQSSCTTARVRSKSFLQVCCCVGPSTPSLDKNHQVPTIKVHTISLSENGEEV

[19] = target: Beta-1 adrenergic receptor (Homo sapiens) (UniProt P08588); assay: Antagonist activity at ARbeta1 (unknown origin) expressed in HEK293 cells co-expressing Galpha16 assessed as inhibition of Isoproterenol induced calcium response upto 100 uM incubated for 10 mins by calcium mobilization assay; assay type: functional, cell-based
[20] = target: Beta-3 adrenergic receptor (Homo sapiens) (UniProt P13945); assay: Antagonist activity at ARbeta3 (unknown origin) expressed in HEK293 cells co-expressing Galpha16 assessed as inhibition of Isoproterenol induced calcium response upto 100 uM incubated for 10 mins by calcium mobilization assay; assay type: functional, cell-based
[21] = target: D(1A) dopamine receptor (Homo sapiens) (UniProt P21728); assay: Antagonist activity at DRD1 (unknown origin) expressed in HEK293 cells co-expressing Galpha16 assessed as inhibition of dopamine induced calcium response upto 100 uM incubated for 10 mins by calcium mobilization assay; assay type: functional, cell-based
D(1A) dopamine receptor (Homo sapiens), sequence (P21728 whole entry): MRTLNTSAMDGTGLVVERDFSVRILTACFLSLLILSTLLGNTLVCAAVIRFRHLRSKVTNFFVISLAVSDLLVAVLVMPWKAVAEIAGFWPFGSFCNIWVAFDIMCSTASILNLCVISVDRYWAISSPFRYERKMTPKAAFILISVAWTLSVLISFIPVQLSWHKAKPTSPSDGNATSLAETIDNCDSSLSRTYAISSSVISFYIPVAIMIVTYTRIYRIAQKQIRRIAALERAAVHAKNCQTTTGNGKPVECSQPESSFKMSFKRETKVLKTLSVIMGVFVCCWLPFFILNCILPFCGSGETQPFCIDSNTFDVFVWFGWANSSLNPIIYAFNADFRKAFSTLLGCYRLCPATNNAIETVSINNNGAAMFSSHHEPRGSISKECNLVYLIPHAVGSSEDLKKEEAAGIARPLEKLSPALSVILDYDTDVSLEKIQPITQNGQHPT

Beta-3 adrenergic receptor (Homo sapiens), sequence (P13945 whole entry, looked up): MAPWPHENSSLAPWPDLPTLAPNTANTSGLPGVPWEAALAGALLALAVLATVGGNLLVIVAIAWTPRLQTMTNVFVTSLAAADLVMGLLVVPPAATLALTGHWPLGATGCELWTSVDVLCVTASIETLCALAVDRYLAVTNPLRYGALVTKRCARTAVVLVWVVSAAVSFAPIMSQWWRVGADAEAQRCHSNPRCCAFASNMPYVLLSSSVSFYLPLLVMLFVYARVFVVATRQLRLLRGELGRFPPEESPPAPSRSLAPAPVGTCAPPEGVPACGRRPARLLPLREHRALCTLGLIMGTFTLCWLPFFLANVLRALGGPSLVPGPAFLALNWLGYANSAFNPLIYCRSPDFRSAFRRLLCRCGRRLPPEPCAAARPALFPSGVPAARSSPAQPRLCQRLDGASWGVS
Beta-1 adrenergic receptor (Homo sapiens), sequence (P08588 whole entry, looked up): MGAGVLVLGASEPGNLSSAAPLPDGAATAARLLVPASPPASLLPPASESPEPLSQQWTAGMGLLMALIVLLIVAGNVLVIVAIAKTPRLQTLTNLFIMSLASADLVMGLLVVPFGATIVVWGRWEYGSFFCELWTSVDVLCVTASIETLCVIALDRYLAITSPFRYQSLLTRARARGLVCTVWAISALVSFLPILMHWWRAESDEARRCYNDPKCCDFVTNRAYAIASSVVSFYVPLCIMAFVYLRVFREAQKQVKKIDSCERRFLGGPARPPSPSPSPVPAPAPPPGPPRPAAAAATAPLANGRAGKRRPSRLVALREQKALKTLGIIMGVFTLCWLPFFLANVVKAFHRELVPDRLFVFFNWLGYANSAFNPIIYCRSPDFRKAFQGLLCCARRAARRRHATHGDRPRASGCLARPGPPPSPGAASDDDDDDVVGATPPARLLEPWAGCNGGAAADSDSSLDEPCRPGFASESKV
Kappa-type opioid receptor (Homo sapiens), sequence (P41145 whole entry): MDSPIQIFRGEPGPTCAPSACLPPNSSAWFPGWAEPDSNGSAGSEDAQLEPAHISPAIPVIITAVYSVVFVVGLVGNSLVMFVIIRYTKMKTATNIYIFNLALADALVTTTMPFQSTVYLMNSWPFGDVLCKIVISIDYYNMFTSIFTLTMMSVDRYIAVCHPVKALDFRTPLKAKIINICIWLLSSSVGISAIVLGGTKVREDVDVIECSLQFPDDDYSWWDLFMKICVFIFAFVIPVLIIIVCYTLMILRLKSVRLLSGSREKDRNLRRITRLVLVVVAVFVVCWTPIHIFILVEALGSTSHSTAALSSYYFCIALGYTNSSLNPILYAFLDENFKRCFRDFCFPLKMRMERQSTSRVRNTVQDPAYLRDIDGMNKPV
Delta-type opioid receptor (Homo sapiens), sequence (P41143 whole entry): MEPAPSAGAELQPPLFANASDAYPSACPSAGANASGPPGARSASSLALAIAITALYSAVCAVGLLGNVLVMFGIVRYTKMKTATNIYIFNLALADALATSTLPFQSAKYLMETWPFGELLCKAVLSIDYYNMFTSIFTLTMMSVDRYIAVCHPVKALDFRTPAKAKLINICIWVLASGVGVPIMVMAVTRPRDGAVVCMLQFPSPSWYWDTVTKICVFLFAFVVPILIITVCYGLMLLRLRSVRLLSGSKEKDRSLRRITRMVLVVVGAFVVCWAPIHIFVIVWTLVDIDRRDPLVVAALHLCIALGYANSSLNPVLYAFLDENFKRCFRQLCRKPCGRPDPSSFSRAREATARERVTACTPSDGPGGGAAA

O=P([O-])(OC1=Cc2c(Cl)cccc2Sc2ccccc21)OC1=Cc2c(Cl)cccc2Sc2ccccc21.[Na+]
AUC(0-t) [1]: 502 ng·h/mL | bioavailability [2]: 12% | concentration at 2 h [3]: 393 ng/mL | concentration at 2 h [4]: 6.3 ng/g | concentration at 0.5 h [5]: 18.6 ng/g | concentration at 2 h [6]: 60.5 ng/g | concentration at 8 h [7]: 26.1 ng/g | concentration at 0.5 h [8]: 297 ng/g | concentration at 2 h [9]: 1960 ng/g | concentration at 8 h [10]: 1180 ng/g | inhibition [11]: Active | inhibition [12]: Active | inhibition [13]: Active | inhibition [14]: inactive | inhibition [15]: inactive | inhibition [16]: inactive | inhibition [17]: inactive | inhibition [18]: inactive | inhibition [19]: inactive | inhibition [20]: inactive | inhibition [21]: inactive
